{"source": "patent US10259777B2", "about": "“(E)-3-(3,4-dihydroxyphenyl)-N-(prop-2-yn-1-yl)acrylamide for treatment of neurodegenerative diseases” (THE UNIVERSITY OF HONG KONG, priority 2015, dated 2019)", "key": {"PC12 cells [1]": {"system": "PC12 cells", "assay": "6-OHDA-induced nitric oxide production, DAF-FM Diacetate staining", "type": "cell-based, rat", "conditions": "6-OHDA with PACA 5, 10, 20 and 50 μM", "method": "After the treatment with 6-OHDA alone or in combination with PACA at different concentrations, PC12 cells were stained with a fluorescent probe dihydroethidium (DHE) for the production of superoxide anion (A & B) and another fluorescent probe DAF-FM Diacetate for the production of nitric oxide ([…]), respectively. (A) Representative images of DHE-stained cells. 6-OHDA, 200 μM; PACA, 50 (B) PACA inhibited 6-OHDA-induced formation of superoxide ions. PC12 cells were treated with 6-OHDA alone or in combination with PACA for 6 h and subsequently stained with a probe DHE. The images were captured under a fluorescence microscope. The fluorescence was determined by ImageJ software. (C) Representative images of DAF-FM DA-stained cells. 6-OHDA, 200 μM; PACA, 50 μM. (D) PACA inhibited 6-OHDA-induced NO production. PC12 cells were treated with 6-OHDA alone or in combination with PACA for 6 h and subsequently stained with a probe DAF-FM DA. The images were captured under a fluorescence microscope. The fluorescence was determined by ImageJ software.\nPC12 cells were treated with 6-OHDA alone or in combination with PACA at the concentrations of 5, 10, 20 and 50 μM. At the end of treatment, PC12 cells were then stained with a fluorescent probe dihydroethidium (DHE) for the production of superoxide anion and another fluorescent probe DAF-FM Diacetate for the production of nitric oxide, respectively."}, "PC12 cells [2]": {"system": "PC12 cells", "assay": "NGF-induced neurite outgrowth (neuritogenic activity) in PC12 cells", "type": "cell-based, rat", "conditions": "72 hours", "method": "(§1) The neuritogenic potential of PACA was verified by the induction of the main neuronal biomarkers (i.g., β3-tubulin, MAP-2 and GAP43). (A) Representative images for the potentiation of NGF-induced neurite outgrowth in PC12 cells by PACA. PC12 cells were treated with NGF (2 ng/ml) and PACA, alone or in combination. The cells were stained with neurite outgrowth staining kit and imaged under a fluorescence microscope. (B) Quantification of neurite outgrowth in Panel A. Following the staining of neurites, the cells bearing neurites longer than 20 μm were counted under a fluorescence microscope. **, p<0.01 (sample vs NGF alone). (C) Western blot analysis of neuronal biomarkers. The cells were treated with NGF and PACA, alone or in combination, whereas the control cells were treated with vehicle for 72 hours. The cellular proteins were extracted and detected by Western blot analysis for the expression of neuron marker. GAPDH was detected as the control of protein loading.\n(§2) The neuritogenic activity of PACA was evaluated in rat dopaminergic PC12 cells. PC12 cells were treated with NGF (2 ng/mL) alone or in combination with PACA at the concentrations of 5, 10, 20 μM for 72 hours. The cells were stained by a neurite outgrowth kit, and subsequently analyzed for neurites (>20 μm) under a fluorescence microscope. […] Following the treatment with PACA and NGF, alone or in combination, PC12 cells were analyzed by Western blotting for the expression of neuronal biomarkers (i.g., β3-tubulin, MAP2 and GAP-43)."}, "Keap1": {"molecular_target": "T1, Keap1 (Rattus norvegicus, UniProt P57790)", "T1 construct": "endogenous in cells; host or cells: PC12 (rat pheochromocytoma) cells", "T1 sequence (P57790 whole entry)": "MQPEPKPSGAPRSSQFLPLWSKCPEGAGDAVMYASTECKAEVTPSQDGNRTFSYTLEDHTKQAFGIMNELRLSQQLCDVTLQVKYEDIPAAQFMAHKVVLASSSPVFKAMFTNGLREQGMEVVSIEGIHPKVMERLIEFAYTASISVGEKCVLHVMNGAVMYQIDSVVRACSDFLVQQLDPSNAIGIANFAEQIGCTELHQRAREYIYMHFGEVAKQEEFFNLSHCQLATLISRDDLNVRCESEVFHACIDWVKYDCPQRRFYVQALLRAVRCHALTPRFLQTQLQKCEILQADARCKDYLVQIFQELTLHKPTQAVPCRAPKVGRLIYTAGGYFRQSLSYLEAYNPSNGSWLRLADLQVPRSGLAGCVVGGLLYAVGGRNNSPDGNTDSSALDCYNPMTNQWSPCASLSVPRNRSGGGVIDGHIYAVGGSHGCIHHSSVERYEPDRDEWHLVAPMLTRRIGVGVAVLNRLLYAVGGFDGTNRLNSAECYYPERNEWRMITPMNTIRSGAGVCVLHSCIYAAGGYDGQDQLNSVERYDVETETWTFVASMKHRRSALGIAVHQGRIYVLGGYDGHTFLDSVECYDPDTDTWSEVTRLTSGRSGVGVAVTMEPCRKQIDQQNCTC", "assay": "Identification of PACA-modified proteins by Click chemistry biotin tagging and affinity isolation", "type": "cell-based", "conditions": "20 μM PACA, biotin tag by Click chemistry, Keap1 antibody pull-down", "method": "PACA directly modifies the proteins bearing free cysteine residues after oxidase-mediated oxidation into chemically reactive o-quinone. At the end of 24 hour incubation, a biotin tag was introduced to the proteins that were covalently modified by PACA. Following affinity isolation with anti-Keap1 antibody bead, streptavidin-horseradish peroxidase (HRP) detected Keap1 as the predominant PACA-modified protein with the apparent molecular size of ˜72 kDa. (A) Biotinylation of PACA-modified proteins by Click chemistry. Oxidase represents the enzymes that oxidize PACA to o-quinone, Protein-SH represents the protein bearing free cysteine residues. (B) Procedure for the isolation of PACA-modified proteins. (C) Western blotting analysis of PACA-modified proteins. PC12 cells were treated with PACA (20 μM) for 6 h. […] All protein fractions were resolved by SDS-PAGE and detected by streptavidin-HRP conjugate. […]\nPACA is converted to the chemically reactive o-quinone intermediate by the intracellular oxidases after PACA got inside the cells. […] Following gel electrophoresis and Western blotting onto PVDF (polyvinylidene difluoride) membranes, HRP-streptavidin conjugate detected a predominant ˜70 kDa protein band (data not shown). Such protein band was also detected by keap1 antibody through a similar procedure. […] The blots were probed by HRP-conjugated streptavidin, and subsequently detected by chemiluminescence. […]"}, "[3]": {"system": "β3-tubulin, MAP2 and GAP-43", "assay": "Western blot of neuronal biomarkers in PC12 cells", "type": "cell-based, rat", "conditions": "PACA and NGF, alone or in combination", "method": "as §1\nas §2, with “PC12 cells were treated with NGF (2 ng/mL) alone or in combination with PACA at the concentrations of 5, 10, 20 μM for 72 hours.” left out"}}}
{"smiles": "C#CCNC(=O)/C=C/c1ccc(O)c(O)c1", "note": "[PACA, (E)-3-(3,4-dihydroxyphenyl)-N-(prop-2-yn-1-yl)acrylamide]", "values": [{"measurement": "6-OHDA-induced formation of NO", "setting": "PC12 cells [1]", "result": "significantly attenuated"}, {"measurement": "neurite outgrowth by compound alone", "setting": "PC12 cells [2]; PACA 20 μM alone", "result": "did not induce neurite outgrowth"}, {"measurement": "increase in number of neurite-bearing cells relative to NGF alone", "setting": "PC12 cells [2]; PACA 20 μM and NGF 2 ng/mL in combination", "result": "~6", "unit": "fold"}, {"measurement": "potentiation of NGF-induced neurite outgrowth", "setting": "PC12 cells [2]; PACA 5, 10, 20 μM with NGF 2 ng/mL, neurites >20 μm, compared with NGF alone", "result": "significantly potentiated NGF-induced neurite outgrowth in a concentration-dependent manner"}, {"measurement": "PACA-modified protein isolated from treated PC12 cells", "setting": "Keap1", "result": "kelch-like ECH-associated protein 1 (Keap1) was isolated as the predominant protein"}, {"measurement": "induction of neuronal markers β3-tubulin, MAP2 and GAP-43", "setting": "[3]", "result": "enhanced the neuritogenic activity of NGF in a concentration-dependent manner"}]}
